The results in this text go back to US8044073B2, “Aminobenzimidazoles and benzimidazoles as inhibitors of respiratory syncytial virus replication” (Tibotec Pharmaceuticals, priority 2003, dated 2011).

The subject of this experiment is Respiratory Syncytial Virus. Nature of the experiment: In vitro screening for activity against RSV (tetrazolium-based colorimetric assay, protection against viral cytopathology). To be noted: Table 1; RSV in HeLa cells, MTT, seven days after infection; pEC50 = -log of EC50 in molar units. It is filed as cell-based. The text has this:
The percent protection against cytopathology caused by viruses (antiviral activity or EC50) achieved by tested compounds and their cytotoxicity (CC50) are both calculated from dose-response curves. The selectivity of the antiviral effect is represented by the selectivity index (SI), calculated by dividing the CC50 (cytotoxic dose for 50% of the cells) by the EC50 (antiviral activity for 50% of the cells). The tables in the above experimental part list the category to which each of the prepared compounds belong: Compounds belonging to activity category “A” have a pEC50 (−log of EC50 when expressed in molar units) equal to or more than 7. Compounds belonging to activity category “B” have a pEC50 value between 6 and 7.
Automated tetrazolium-based colorimetric assays were used for determination of EC50 and CC50 of test compounds. Flat-bottom, 96-well plastic microtiter trays were filled with 180 μl of Eagle's Basal Medium, supplemented with 5% FCS (0% for FLU) and 20 mM Hepes buffer. Subsequently, stock solutions (7.8× final test concentration) of compounds were added in 45 μl volumes to a series of triplicate wells so as to allow simultaneous evaluation of their effects on virus- and mock-infected cells. Five five-fold dilutions were made directly in the microtiter trays using a robot system. Untreated virus controls, and HeLa cell controls were included in each test. Approximately 100 TCID50 of Respiratory Syncytial Virus was added to two of the three rows in a volume of 50 μl. The same volume of medium was added to the third row to measure the cytotoxicity of the compounds at the same concentrations as those used to measure the antiviral activity. After two hours of incubation, a suspension (4×10^5 cells/ml) of HeLa cells was added to all wells in a volume of 50 μl. The cultures were incubated at 37° C. in a 5% CO2 atmosphere. Seven days after infection the cytotoxicity and the antiviral activity was examined spectrophotometrically. To each well of the microtiter tray, 25 μl of a solution of MTT (3-(4,5-dimethylthiazol-2-yl)-2,5-diphenyltetrazolium bromide) was added. The trays were further incubated at 37° C. for 2 hours, after which the medium was removed from each cup. Solubilization of the formazan crystals was achieved by adding 100 μl 2-propanol. Complete dissolution of the formazan crystals were obtained after the trays have been placed on a plate shaker for 10 min. Finally, the absorbances were read in an eight-channel computer-controlled photometer (Multiskan MCC, Flow Laboratories) at two wavelengths (540 and 690 nm). The absorbance measured at 690 nm was automatically subtracted from the absorbance at 540 nm, so as to eliminate the effects of non-specific absorption.
The percent protection against cytopathology caused by viruses (antiviral activity or EC50) achieved by tested compounds and their cytotoxicity (CC50) were both calculated from dose-response curves. The selectivity of the antiviral effect is represented by the selectivity index (SI), calculated by dividing the CC50 (cytotoxic dose for 50% of the cells) by the EC50 (antiviral activity for 50% of the cells).

Each structure is given as a SMILES string.

`Cc1cccc(NCc2ccc3nc(N)n(Cc4nc(C)ccc4O)c3c2)c1` [Compound 1, 2-[2-Amino-6-(mtolylamino-methyl)-benzoimidazol-1-ylmethyl]-6-methyl-pyridin-3-ol] gave an Activity of 8.6. As to `Cc1ccc(O)c(Cn2c(N)nc3ccc(CNc4cc(Cl)cc(Cl)c4)cc32)n1` [Compound 2], the Activity is 8.6. In the case of `Cc1ccc(O)c(Cn2c(N)nc3ccc(CNc4cccc(Br)c4)cc32)n1` [Compound 3] it was 8.6; in that of `Cc1ccc(O)c(Cn2c(N)nc3ccc(CNc4cccc(Cl)c4)cc32)n1` [Compound 5], 8.5. `C#Cc1cccc(NCc2ccc3nc(N)n(Cc4nc(C)ccc4O)c3c2)c1` [Compound 6] registered an Activity of 8.5. With `CC(=O)O.COc1ccccc1NCc1ccc2nc(N)n(Cc3nc(C)ccc3O)c2c1` [Compound 7], the Activity is on record as 8.5. As for `Cc1cc(C)cc(NCc2ccc3nc(N)n(Cc4nc(C)ccc4O)c3c2)c1` [Compound 9], the Activity came out at 8.4.

The molecule `Cc1ccc(O)c(Cn2c(N)nc3ccc(CNc4ccc(S(N)(=O)=O)cc4)cc32)n1` [Compound 10] yielded an Activity of 8.4.

The molecule `Cc1ccc(O)c(Cn2c(N)nc3ccc(CNc4ccccc4CO)cc32)n1` [Compound 11] showed an Activity of 8.4. For `CC(=O)O.CCc1ccccc1NCc1ccc2nc(N)n(Cc3nc(C)ccc3O)c2c1` [Compound 12] the value was 8.4; for `Cc1ccc(O)c(Cn2c(N)nc3ccc(CNc4ccc(C#N)cc4)cc32)n1` [Compound 13], 8.4; for `CCOC(=O)c1ccc(NCc2ccc3nc(N)n(Cc4nc(C)ccc4O)c3c2)c(O)c1` [Compound 14], 8.3. In turn, `CSc1cccc(NCc2ccc3nc(N)n(Cc4nc(C)ccc4O)c3c2)c1` [Compound 15] yielded an Activity of 8.3. Take `CCc1cccc(CC)c1NCc1ccc2nc(N)n(Cc3nc(C)ccc3O)c2c1` [Compound 17]: the Activity was determined as 8.1. For `CCc1cccc(NCc2ccc3nc(N)n(Cc4nc(C)ccc4O)c3c2)c1` [Compound 18], the Activity is listed as 8.0. For `Cc1ccc(O)c(Cn2c(N)nc3ccc(CNc4cccc(C)c4C)cc32)n1` [Compound 19] the value was 8.0. For `Cc1ccc(O)c(Cn2c(N)nc3ccc(CNc4ccccc4Br)cc32)n1` [Compound 20] the value was 8.0; for `Cc1ccc(O)c(Cn2c(N)nc3ccc(CNc4ccccc4)cc32)n1` [Compound 21], 7.9. In the case of `Cc1ccc(O)c(Cn2c(N)nc3ccc(CNc4cccc(F)c4)cc32)n1` [Compound 22] it was 7.9; in that of `Cc1ccc(O)c(Cn2c(N)nc3ccc(CNc4ccc(C)c(C)c4)cc32)n1` [Compound 23], 7.9.

On to `CCOc1cccc(NCc2ccc3nc(N)n(Cc4nc(C)ccc4O)c3c2)c1` [Compound 24], for which the Activity is reported as 7.9. In the case of `Cc1ccc(O)c(Cn2c(N)nc3ccc(CNc4ccccc4C#N)cc32)n1` [Compound 25] it was 7.9; in that of `Cc1ccc(O)c(Cn2c(N)nc3ccc(CNc4cccc(CO)c4)cc32)n1` [Compound 26], 7.9; in that of `Cc1ccc(O)c(Cn2c(N)nc3ccc(CNc4cccc(NS(C)(=O)=O)c4)cc32)n1` [Compound 27], 7.9. In the case of `COc1ccc(NCc2ccc3nc(N)n(Cc4nc(C)ccc4O)c3c2)cc1F` [Compound 28] it was 7.8; in that of `Cc1ccc(O)c(Cn2c(N)nc3ccc(CNc4cccc(Cl)c4C)cc32)n1` [Compound 29], 7.8. Turning to `Cc1ccc(O)c(Cn2c(N)nc3ccc(CNc4cccc(SC(F)(F)F)c4)cc32)n1` [Compound 30], the Activity is 7.8.

With `Cc1ccc(O)c(Cn2c(N)nc3ccc(CNc4ccccc4C(C)C)cc32)n1` [Compound 32], the Activity was 7.8.

For the molecule `Cc1ccc(O)c(Cn2c(N)nc3ccc(CNc4cccc(S(=O)(=O)CCO)c4)cc32)n1` [Compound 33], the Activity was 7.8. For the molecule `COc1cc(NCc2ccc3nc(N)n(Cc4nc(C)ccc4O)c3c2)cc(OC)c1` [Compound 34], the Activity turned out to be 7.7. In the case of `CC(=O)Nc1cccc(NCc2ccc3nc(N)n(Cc4nc(C)ccc4O)c3c2)c1` [Compound 35] it was 7.7; in that of `Cc1ccc(O)c(Cn2c(N)nc3ccc(CNc4ccc5c(c4)CCC5)cc32)n1` [Compound 36], 7.7. `Cc1ccc(O)c(Cn2c(N)nc3ccc(CNc4cc(Br)cc(C(F)(F)F)c4)cc32)n1` [Compound 37] yielded an Activity of 7.7. In the case of `Cc1ccc(O)c(Cn2c(N)nc3ccc(CNc4ccccc4C(N)=O)cc32)n1` [Compound 39] it was 7.7; in that of `Cc1ccc(O)c(Cn2c(N)nc3ccc(CNc4ccccc4F)cc32)n1` [Compound 40], 7.7. The molecule `Cc1ccc(O)c(Cn2c(N)nc3ccc(CNc4cccc(C(=N)N)c4)cc32)n1` [Compound 41] registered an Activity of 7.7. In the case of `CC(=O)c1cccc(NCc2ccc3nc(N)n(Cc4nc(C)ccc4O)c3c2)c1` [Compound 42] it was 7.6; in that of `Cc1ccc(O)c(Cn2c(N)nc3ccc(CNc4ccc5c(c4)OCCO5)cc32)n1` [Compound 43], 7.6; in that of `Cc1ccc(O)c(Cn2c(N)nc3ccc(CNc4cccc5cccnc45)cc32)n1` [Compound 44], 7.6. For `Cc1ccc(O)c(Cn2c(N)nc3ccc(CNc4cc(F)cc(C(F)(F)F)c4)cc32)n1` [Compound 45] the value was 7.6; for `Cc1ccc(O)c(Cn2c(N)nc3ccc(CNc4cccc(CC(=O)O)c4)cc32)n1` [Compound 46], 7.6; for `CCCCNS(=O)(=O)c1cccc(NCc2ccc3nc(N)n(Cc4nc(C)ccc4O)c3c2)c1` [Compound 47], 7.6. For `Cc1ccc(O)c(Cn2c(N)nc3ccc(CNc4ccccc4C(F)(F)F)cc32)n1` [Compound 48] the value was 7.6. The molecule `Cc1ccc(O)c(Cn2c(N)nc3ccc(CNc4cc(F)cc(F)c4)cc32)n1` [Compound 49] came in with an Activity of 7.5. As for `CCc1cc(Br)ccc1NCc1ccc2nc(N)n(Cc3nc(C)ccc3O)c2c1` [Compound 52], the Activity is given as 7.5. In the case of `CC(=O)Nc1ccc(NCc2ccc3nc(N)n(Cc4nc(C)ccc4O)c3c2)cc1` [Compound 53] it was 7.5; in that of `Cc1ccc(O)c(Cn2c(N)nc3ccc(CNc4ccc(Br)cc4)cc32)n1` [Compound 54], 7.5; in that of `Cc1ccc(O)c(Cn2c(N)nc3ccc(CNc4ccc(F)c(F)c4)cc32)n1` [Compound 55], 7.4. Consider `Cc1ccc(O)c(Cn2c(N)nc3ccc(CNc4ccc(Br)c(C)c4)cc32)n1` [Compound 56], for which the Activity was 7.4. In the case of `COc1cc(NCc2ccc3nc(N)n(Cc4nc(C)ccc4O)c3c2)cc(C(F)(F)F)c1` [Compound 57] it was 7.4. In the case of `CC(=O)O.Cc1ccc(O)c(Cn2c(N)nc3ccc(CNc4ccccc4-c4ccccc4)cc32)n1` [Compound 58] it was 7.4; in that of `CCOC(=O)c1cccc(NCc2ccc3nc(N)n(Cc4nc(C)ccc4O)c3c2)c1` [Compound 59], 7.3; in that of `Cc1ccc(O)c(Cn2c(N)nc3ccc(CNc4ccc(C)c(F)c4)cc32)n1` [Compound 60], 7.3. Molecule `COc1ccc(NCc2ccc3nc(N)n(Cc4nc(C)ccc4O)c3c2)cc1OC` [Compound 61] had an Activity of 7.3. In turn, `Cc1ccc(O)c(Cn2c(N)nc3ccc(CNc4ccc(Br)c(C(F)(F)F)c4)cc32)n1` [Compound 62] registered an Activity of 7.3.

`Cc1ccc(O)c(Cn2c(N)nc3ccc(CNc4ccc(Br)c(F)c4)cc32)n1` [Compound 63] displayed an Activity of 7.3. Turning to `COC(=O)c1cc(NCc2ccc3nc(N)n(Cc4nc(C)ccc4O)c3c2)cc(C(=O)OC)c1` [Compound 64], the Activity is reported as 7.3.

Turning to `Cc1ccc(NCc2ccc3nc(N)n(Cc4nc(C)ccc4O)c3c2)cc1` [Compound 67], the Activity is listed as 7.3.

`CCOC(=O)c1ccccc1NCc1ccc2nc(N)n(Cc3nc(C)ccc3O)c2c1` [Compound 68] registered an Activity of 7.2.
